Measurements as given in ChEMBL document CHEMBL5724914, “Linking interpersonal differences in gut microbiota composition and drug biotransformation activity” (2024).
Where a SMILES comes first, the peptide text is derived from it. [ ]: non-standard residue; d: D form. pGlu = O=C1CC[C@@H](C(=O)O)N1; Thz = O=C(O)[C@@H]1CSCN1

Legend:
[1] = (§1) The drug is tested on Z-007 corresponding to rat gut metagenome with ENA study accession number: PRJEB37062 and ENA sample accession number: ERS12561807 for biotransformation under anaerobic condition. The drug concentrations were measured over 9 timepoints collected between 0 and 24 hours of incubation by liquid-chromatography-coupled mass spectrometry (LC–MS); details: 2 µM
[2] = as §1, with “Z-005” for “Z-007”, “to” for “to rat gut”, “ERS12561805” for “ERS12561807”; details: 2 µM
[3] = human gut metagenome, 24 h, 2 µM
[4] = as §1, with “Z-027” for “Z-007”, “to” for “to rat gut”, “ERS12561826” for “ERS12561807”; details: 2 µM
[5] = human gut metagenome, 24 h, 2 µM; remark: listed apart in the source
[6] = human gut metagenome, 24 h, 2 µM; remark: listed apart in the source
[7] = human gut metagenome, 24 h, 2 µM; remark: listed apart in the source
[8] = as §1, with “Z-012” for “Z-007”, “to” for “to rat gut”, “ERS12561812” for “ERS12561807”; details: 2 µM
[9] = human gut metagenome, 24 h, 2 µM; remark: listed apart in the source
[10] = as §1, with “on WLS-073” for “on Z-007”, “to human” for “to rat”, “number: ERS12561749” for “number: ERS12561807”; details: 2 µM
[11] = as §1, with “on WLS-350” for “on Z-007”, “to human” for “to rat”, “number: ERS12561789” for “number: ERS12561807”; details: 2 µM
[12] = human gut metagenome, 24 h, 2 µM; remark: listed apart in the source
[13] = as §1, with “on WLS-038” for “on Z-007”, “to human” for “to rat”, “number: ERS12561745” for “number: ERS12561807”; details: 2 µM
[14] = as §1, with “on WLS-077” for “on Z-007”, “to human” for “to rat”, “number: ERS12561750” for “number: ERS12561807”; details: 2 µM
[15] = as §1, with “on Z-030” for “on Z-007”, “to mouse” for “to rat”, “number: ERS12561829” for “number: ERS12561807”; details: 2 µM
[16] = as §1, with “on WLS-052” for “on Z-007”, “to human” for “to rat”, “number: ERS12561747” for “number: ERS12561807”; details: 2 µM
[17] = as §1, with “on Z-017” for “on Z-007”, “to mouse” for “to rat”, “number: ERS12561816” for “number: ERS12561807”; details: 2 µM
[18] = as §1, with “Z-008” for “Z-007”, “to” for “to rat gut”, “ERS12561808” for “ERS12561807”; details: 2 µM
[19] = human gut metagenome, 24 h, 2 µM; remark: listed apart in the source
[20] = as §1, with “Z-010” for “Z-007”, “to” for “to rat gut”, “ERS12561810” for “ERS12561807”; details: 2 µM
Note: call rule not given here.

SMILES: CCC(COC(=O)c1cc(OC)c(OC)c(OC)c1)(c1ccccc1)N(C)C.O=C(O)/C=C\C(=O)O (configuration not stated)
- Bacterial Biotransformation [1]: Compound NOT metabolized
- Bacterial Biotransformation [2]: Compound NOT metabolized
- Bacterial Biotransformation [3]: Compound metabolized
- Bacterial Biotransformation [4]: Compound NOT metabolized
- Bacterial Biotransformation [5]: Compound metabolized
- Bacterial Biotransformation [6]: Compound NOT metabolized
- Bacterial Biotransformation [7]: Compound metabolized
- Bacterial Biotransformation [8]: Compound NOT metabolized
- Bacterial Biotransformation [9]: Compound NOT metabolized
- Bacterial Biotransformation [10]: Compound NOT metabolized
- Bacterial Biotransformation [11]: Compound NOT metabolized
- Bacterial Biotransformation [12]: Compound metabolized
- Bacterial Biotransformation [13]: Compound NOT metabolized
- Bacterial Biotransformation [14]: Compound NOT metabolized
- Bacterial Biotransformation [15]: Compound NOT metabolized
- Bacterial Biotransformation [16]: Compound NOT metabolized
- Bacterial Biotransformation [17]: Compound NOT metabolized
- Bacterial Biotransformation [18]: Compound NOT metabolized
- Bacterial Biotransformation [19]: Compound metabolized

SMILES: COc1ccc(CCN(C)CCCC(C#N)(c2ccc(OC)c(OC)c2)C(C)C)cc1OC (configuration not stated)
- Bacterial Biotransformation [1]: Compound NOT metabolized
- Bacterial Biotransformation [2]: Compound metabolized
- Bacterial Biotransformation [3]: Compound metabolized
- Bacterial Biotransformation [4]: Compound NOT metabolized
- Bacterial Biotransformation [5]: Compound metabolized
- Bacterial Biotransformation [6]: Compound NOT metabolized
- Bacterial Biotransformation [7]: Compound metabolized
- Bacterial Biotransformation [8]: Compound metabolized
- Bacterial Biotransformation [9]: Compound NOT metabolized
- Bacterial Biotransformation [10]: Compound metabolized
- Bacterial Biotransformation [11]: Compound metabolized
- Bacterial Biotransformation [12]: Compound metabolized
- Bacterial Biotransformation [13]: Compound NOT metabolized
- Bacterial Biotransformation [14]: Compound NOT metabolized
- Bacterial Biotransformation [15]: Compound NOT metabolized
- Bacterial Biotransformation [16]: Compound NOT metabolized
- Bacterial Biotransformation [17]: Compound NOT metabolized
- Bacterial Biotransformation [18]: Compound NOT metabolized
- Bacterial Biotransformation [19]: Compound metabolized

SMILES: O=C(NCc1ccccc1)OCCO [BURAMATE]
- Bacterial Biotransformation [1]: Compound NOT metabolized
- Bacterial Biotransformation [2]: Compound NOT metabolized
- Bacterial Biotransformation [3]: Compound NOT metabolized
- Bacterial Biotransformation [4]: Compound NOT metabolized
- Bacterial Biotransformation [5]: Compound NOT metabolized
- Bacterial Biotransformation [6]: Compound NOT metabolized
- Bacterial Biotransformation [7]: Compound NOT metabolized
- Bacterial Biotransformation [20]: Compound NOT metabolized
- Bacterial Biotransformation [8]: Compound NOT metabolized
- Bacterial Biotransformation [9]: Compound NOT metabolized
- Bacterial Biotransformation [10]: Compound NOT metabolized
- Bacterial Biotransformation [11]: Compound NOT metabolized
- Bacterial Biotransformation [12]: Compound NOT metabolized
- Bacterial Biotransformation [13]: Compound NOT metabolized
- Bacterial Biotransformation [14]: Compound NOT metabolized
- Bacterial Biotransformation [15]: Compound NOT metabolized
- Bacterial Biotransformation [16]: Compound NOT metabolized
- Bacterial Biotransformation [18]: Compound NOT metabolized
- Bacterial Biotransformation [19]: Compound NOT metabolized

SMILES: CCCCCCOC(=O)/N=C(/N)c1ccc(NCc2nc3cc(C(=O)N(CCC(=O)OCC)c4ccccn4)ccc3n2C)cc1.CS(=O)(=O)O [DABIGATRAN ETEXILATE MESYLATE]
- Bacterial Biotransformation [1]: Compound NOT metabolized
- Bacterial Biotransformation [2]: Compound NOT metabolized
- Bacterial Biotransformation [4]: Compound NOT metabolized
- Bacterial Biotransformation [20]: Compound NOT metabolized
- Bacterial Biotransformation [8]: Compound NOT metabolized
- Bacterial Biotransformation [11]: Compound NOT metabolized
- Bacterial Biotransformation [15]: Compound NOT metabolized
- Bacterial Biotransformation [17]: Compound NOT metabolized
- Bacterial Biotransformation [18]: Compound NOT metabolized

SMILES: O=c1[nH]c2ccccc2n1CCCN1CCC(n2c(=O)[nH]c3cc(Cl)ccc32)CC1 [DOMPERIDONE]
- Bacterial Biotransformation [1]: Compound NOT metabolized
- Bacterial Biotransformation [2]: Compound NOT metabolized
- Bacterial Biotransformation [3]: Compound NOT metabolized
- Bacterial Biotransformation [4]: Compound NOT metabolized
- Bacterial Biotransformation [5]: Compound NOT metabolized
- Bacterial Biotransformation [6]: Compound NOT metabolized
- Bacterial Biotransformation [20]: Compound NOT metabolized
- Bacterial Biotransformation [8]: Compound NOT metabolized
- Bacterial Biotransformation [9]: Compound NOT metabolized
- Bacterial Biotransformation [10]: Compound NOT metabolized
- Bacterial Biotransformation [11]: Compound NOT metabolized
- Bacterial Biotransformation [12]: Compound NOT metabolized
- Bacterial Biotransformation [13]: Compound NOT metabolized
- Bacterial Biotransformation [14]: Compound NOT metabolized
- Bacterial Biotransformation [15]: Compound NOT metabolized
- Bacterial Biotransformation [16]: Compound NOT metabolized
- Bacterial Biotransformation [17]: Compound NOT metabolized
- Bacterial Biotransformation [18]: Compound NOT metabolized
- Bacterial Biotransformation [19]: Compound NOT metabolized

SMILES: c1ccc([C@H]2CN3CCSC3=N2)cc1 [LEVAMISOLE]
- Bacterial Biotransformation [1]: Compound NOT metabolized
- Bacterial Biotransformation [3]: Compound metabolized
- Bacterial Biotransformation [4]: Compound NOT metabolized
- Bacterial Biotransformation [5]: Compound metabolized
- Bacterial Biotransformation [6]: Compound NOT metabolized
- Bacterial Biotransformation [7]: Compound metabolized
- Bacterial Biotransformation [8]: Compound NOT metabolized
- Bacterial Biotransformation [9]: Compound metabolized
- Bacterial Biotransformation [11]: Compound metabolized
- Bacterial Biotransformation [12]: Compound metabolized
- Bacterial Biotransformation [13]: Compound metabolized
- Bacterial Biotransformation [15]: Compound NOT metabolized
- Bacterial Biotransformation [16]: Compound NOT metabolized
- Bacterial Biotransformation [17]: Compound NOT metabolized
- Bacterial Biotransformation [19]: Compound metabolized

SMILES: C#C[C@]1(O)CC[C@H]2[C@@H]3CCC4=CC(=O)CC[C@@H]4[C@H]3CC[C@@]21CC [LEVONORGESTREL]
- Bacterial Biotransformation [1]: Compound metabolized
- Bacterial Biotransformation [3]: Compound metabolized
- Bacterial Biotransformation [4]: Compound metabolized
- Bacterial Biotransformation [5]: Compound metabolized
- Bacterial Biotransformation [6]: Compound NOT metabolized
- Bacterial Biotransformation [7]: Compound metabolized
- Bacterial Biotransformation [9]: Compound metabolized
- Bacterial Biotransformation [10]: Compound NOT metabolized
- Bacterial Biotransformation [11]: Compound metabolized
- Bacterial Biotransformation [12]: Compound metabolized
- Bacterial Biotransformation [14]: Compound metabolized
- Bacterial Biotransformation [15]: Compound NOT metabolized
- Bacterial Biotransformation [16]: Compound metabolized
- Bacterial Biotransformation [17]: Compound metabolized
- Bacterial Biotransformation [19]: Compound metabolized

SMILES: O=C1CC[C@@H](C(=O)N2CSC[C@H]2C(=O)O)N1 [PIDOTIMOD] ([pGlu]-[Thz]-OH)
- Bacterial Biotransformation [1]: Compound NOT metabolized
- Bacterial Biotransformation [2]: Compound metabolized
- Bacterial Biotransformation [4]: Compound NOT metabolized
- Bacterial Biotransformation [6]: Compound NOT metabolized
- Bacterial Biotransformation [7]: Compound metabolized
- Bacterial Biotransformation [20]: Compound metabolized
- Bacterial Biotransformation [8]: Compound NOT metabolized
- Bacterial Biotransformation [10]: Compound NOT metabolized
- Bacterial Biotransformation [11]: Compound NOT metabolized
- Bacterial Biotransformation [12]: Compound NOT metabolized
- Bacterial Biotransformation [13]: Compound metabolized
- Bacterial Biotransformation [14]: Compound NOT metabolized
- Bacterial Biotransformation [15]: Compound NOT metabolized
- Bacterial Biotransformation [17]: Compound NOT metabolized

SMILES: COC(=O)[C@H]1[C@H]2C[C@@H]3c4[nH]c5cc(OC)ccc5c4CCN3C[C@H]2C[C@@H](OC(=O)c2cc(OC)c(OC)c(OC)c2)[C@@H]1OC [RESERPINE]
- Bacterial Biotransformation [1]: Compound NOT metabolized
- Bacterial Biotransformation [2]: Compound NOT metabolized
- Bacterial Biotransformation [3]: Compound metabolized
- Bacterial Biotransformation [4]: Compound NOT metabolized
- Bacterial Biotransformation [5]: Compound metabolized
- Bacterial Biotransformation [20]: Compound NOT metabolized
- Bacterial Biotransformation [8]: Compound NOT metabolized
- Bacterial Biotransformation [9]: Compound NOT metabolized
- Bacterial Biotransformation [10]: Compound NOT metabolized
- Bacterial Biotransformation [11]: Compound NOT metabolized
- Bacterial Biotransformation [12]: Compound metabolized
- Bacterial Biotransformation [13]: Compound NOT metabolized
- Bacterial Biotransformation [14]: Compound NOT metabolized
- Bacterial Biotransformation [15]: Compound NOT metabolized
- Bacterial Biotransformation [16]: Compound NOT metabolized
- Bacterial Biotransformation [17]: Compound NOT metabolized
- Bacterial Biotransformation [18]: Compound NOT metabolized
- Bacterial Biotransformation [19]: Compound metabolized
